Data taken from ChEMBL document CHEMBL4177683, “New terpenoids and thiophene derivatives from the aerial parts of Artemisia sieversiana” (Bioorg Med Chem Lett, 2017).

Test system: BV-2
Test: Antiinflammatory activity in mouse BV2 cells assessed as inhibition of LPS-stimulated nitric oxide production by Griess reagent based spectrophotometric analysis
Assay type: functional, cell-based

Structure (SMILES)	IC50 [µM]
CC(=O)O[C@H]([C@@H]1C=C(C)C(=O)O1)[C@@H](C)C1[C@@H]2[C@@]3(O)O[C@@]4(CC[C@]12C)C(O)[C@]12OC(=O)C[C@H]1OC(C)(C)[C@@H]2CC[C@H]4C3=O (stereo partly drawn)	11.9
CC1=C(CC[C@@H](C)O)C(C)(C)C[C@H](O)C1	> 100
CC1=CC(=O)[C@]23O[C@@]2(C)C[C@H](O)[C@@H]2[C@H](OC(=O)[C@@H]2C)[C@@H]13	> 100
C/C1=C\C[C@H](O)/C(C)=C/[C@H]2OC(=O)[C@H](C)[C@@H]2CC1	27.9
O=c1c(O)c(-c2ccc(O)c(O)c2)oc2cc(O)cc(O)c12 [QUERCETIN]	16.3
CC#Cc1cc(O)c(C(C)=O)s1	98.5
CC(=O)O[C@H]([C@@H]1CC(C)C(=O)O1)[C@@H](C)C1[C@@H]2[C@@]3(O)O[C@@]4(CC[C@]12C)C(O)[C@]12OC(=O)C[C@H]1OC(C)(C)[C@@H]2CC[C@H]4C3=O (stereo partly drawn)	10.1
CC(=O)O[C@H]1C[C@]2(C)O[C@@]23C(=O)C=C(C)C3[C@H]2OC(=O)[C@H](C)[C@H]12 (stereo partly drawn)	6.5
C/C=C(/C)C(=O)O[C@@H]1C[C@H]2C(C)(C)O[C@@H]3CC(=O)O[C@@]32C[C@@]2(O)C[C@H](O)[C@]34O[C@@]5(C=C(C)C(=O)O5)C[C@@H](C)[C@H]3C[C@@H]3O[C@@]34[C@H]12	> 100
CC#Cc1ccc(C(=O)O)s1	79.5
CC(=O)O[C@H]1CC(C)=C2C(=O)C=C(C)[C@@H]2[C@H]2OC(=O)[C@@H](C)[C@@H]21	> 100
C=C1CC[C@@H](C(C)C)/C=C/C(=O)CC[C@H]1O	> 100
CC1=CC[C@@H]([C@](C)(O)[C@H]2CC[C@@]3(C)[C@@H]4C[C@@H](O)[C@H]5C(C)(C)OC(=O)C=C[C@@]56C[C@@]46CC[C@]23C)OC1=O	> 100
